# From US8323680B1, “Nutritional composition” (Nestec S.A., priority 1999, dated 2012)
# Columns and labels:
# male Rj:NMRI mice = experiment: ELEVATED PLUS MAZE TEST, number of entries in the closed arms; type: in vivo; details: for Number of Entries in the Closed Arms, average entries: diets for 42 days, agent intraperitoneally 60 minutes before test
# Protocol: In order to show the biological activity of the composition of the present invention on animal's behaviour the effect of dietary poly-unsaturated fatty acids with and without a CB-1 receptor antagonist on anxiolytic-like responses in mice were tested. To this end, the ELEVATED PLUS MAZE TEST was applied (adapted after Handley and Mithani (Naunyn. Schmied. Arch. Pharmacol. 327: 1-5, 1984).
# For the experiments male Rj:NMRI mice, obtained from Elevage Janvier, Le Genest-Saint-Isle France and weighing 10-11 g at delivery and 33-51 grams on day 42 were used. The mice were housed 10 per cage in wire cages with bedding and normal light cycle. They received ad libitum quantities of bottled distilled water and purified powdered diets (7.5 g/mouse) in ceramic cups (10/group) for 42 days. The Food was maintained at −80° C. in daily aliquots under nitrogen, thawed each afternoon before administration to mice. Uneaten food was discarded daily.
# The principle of the test resides in that anxiolytic agents increase the number of entries into the open and often the closed arms of the […], mice should want to move and explore the spaces of the open and closed arms rather than staying still in the middle).
# Mice were given the following agents intraperitoneally 60 minutes before the Plus Maze test:
# All diets contained 90% fat-free AIN93G rodent diet in powder form (Lot 9350-5, Dyets, Inc., Bethlehem, Pa.), 0.4% milk fat, 1.2% palm olein, 1.9% Trisun sunflower oil, 1.5% soybean oil and 2.1-5.1% medium chain triacylglycerol oil. Parts of the medium chain triacylglycerol oil were replaced with 1.1% algal oil (providing 0.5 dietary wt.-% arachidonic acid) in diet D, 1.9% fish oil (providing 0.5 dietary wt.-% docosahexaenoic acid) in diet E, and with 1.1% algal oil and 1.9% fish oil in diets F and G. Dietary groups are summarized in the table below:
# The body weight, weight gain and the food intake of the mice was monitored throughout the experiment. […]
# animals = details: injected into animals; cited from earlier work
# [1] = Effects of oral administration of cannabimimetic lipids on ambulation, rearing, immobility, analgesia, body temperature and fecal output (FIG. 3-5); type: in vivo; details: for immobility, difference from control group / rearing, difference from control group / body temperature, difference from control group: p<0.01-0.05, ANOVA, Newman-Keuls
# mice = details: oral, anandamide 300 mgkg body weight−1, 2-arachidonoyl glycerol 400 mgkg body weight−1; cited from earlier work
molecule,measurement,setting,value
Cc1c(C(=O)NN2CCCCC2)nn(-c2ccc(Cl)cc2Cl)c1-c1ccc(I)cc1 [C],"Number of Entries in the Closed Arms, average entries",male Rj:NMRI mice,2.3
same,"Number of Entries in the Closed Arms, difference vs. group A",male Rj:NMRI mice; p-value = 0.19,There was no significant difference (p-value = 0.19).
N-arachidonylethanolamine [anandamide],effects of pure doses when injected,animals,calming effects and effects on the immune system
same,"immobility, difference from control group",[1]; oral administration,significantly different
same,"rearing, difference from control group",[1]; oral administration,significantly different
same,"body temperature, difference from control group",[1],significantly different
same,bioactivity when taken orally,mice,have bioactivity
CN1C(=O)CC(=O)N(c2ccccc2)c2cc(Cl)ccc21 [Clobazam],"Number of Entries in the Closed Arms, average entries",male Rj:NMRI mice,6.3
"CCCCCc1cc(O)c2c(c1)OC(C)(C)[C@@H]1CCC(C)=C[C@@H]21 [THC, 9-tetrahydrocannabinol]",analgesia,[1]; oral administration,significantly increased analgesia
same,"immobility, difference from control group",[1]; oral administration,significantly different
same,"rearing, difference from control group",[1]; oral administration,significantly different
same,"body temperature, difference from control group",[1],significantly different
CCCCCCCC/C=C\CCCCCCCC(N)=O [oleamide],effects of pure doses when injected,animals,calming effects and effects on the immune system
same,"immobility, difference from control group",[1]; oral administration,significantly different
same,"rearing, difference from control group",[1]; oral administration,significantly different
same,"body temperature, difference from control group",[1],significantly different
2 arachidonylglycerol [Diet 2-AG],effects of pure doses when injected,animals,calming effects and effects on the immune system
same,"immobility, difference from control group",[1]; oral administration,significantly different
same,"rearing, difference from control group",[1]; oral administration,significantly different
same,"body temperature, difference from control group",[1],significantly different
same,bioactivity when taken orally,mice,have bioactivity
